pIC50: −log10 of the molar value. Read-outs that look alike come from different tables or passages of the source.
Columns and labels:
BTK = BTK (Homo sapiens (Human), UniProt Q06187); test: Omnia assay for potency assessment against BTK; type: biochemical; conditions: [BTK]=5 nM, Omnia assay; read-out: BTK Inhibition (IC50)
Protocol: The modified BTK-optimized reagent conditions for the above protocol are:
[BTK]=5 nM, [ATP]=[…], [Y5-Sox]=[…] (ATP KMapp˜[…]).

EGFR-WT = EGFR-WT (Homo sapiens (Human), UniProt P00533); test: Omnia assay for potency assessment against EGFR (WT)
[1] = read-out: EGFR (wild type inhibition), EGFR wild type

BTK, sequence (Q06187 whole entry): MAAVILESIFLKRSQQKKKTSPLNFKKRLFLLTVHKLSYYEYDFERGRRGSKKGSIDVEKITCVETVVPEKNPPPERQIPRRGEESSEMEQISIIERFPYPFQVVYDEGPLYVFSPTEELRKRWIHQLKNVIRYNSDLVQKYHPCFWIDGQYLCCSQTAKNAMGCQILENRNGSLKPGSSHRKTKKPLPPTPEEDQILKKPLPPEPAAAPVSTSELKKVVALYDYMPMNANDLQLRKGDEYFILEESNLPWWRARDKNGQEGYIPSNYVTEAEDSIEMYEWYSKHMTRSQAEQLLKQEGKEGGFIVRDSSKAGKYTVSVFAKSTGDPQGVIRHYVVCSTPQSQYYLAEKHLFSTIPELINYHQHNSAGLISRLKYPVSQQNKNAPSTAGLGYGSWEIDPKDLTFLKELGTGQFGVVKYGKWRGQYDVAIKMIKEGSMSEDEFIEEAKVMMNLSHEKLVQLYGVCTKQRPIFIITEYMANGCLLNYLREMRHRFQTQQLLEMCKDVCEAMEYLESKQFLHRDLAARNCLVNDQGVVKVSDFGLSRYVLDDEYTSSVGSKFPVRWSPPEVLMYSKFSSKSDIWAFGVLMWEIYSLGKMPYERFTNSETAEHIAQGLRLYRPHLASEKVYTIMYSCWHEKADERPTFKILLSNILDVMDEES

| pIC50 (BTK) | pIC50 (EGFR-WT; [1]) | pIC50 (EGFR-WT) | Compound |
| --- | --- | --- | --- |
| < 5.00 |  | 6.00 to 7.00 | COc1cccc(Nc2ncc(C(F)(F)F)c(N[C@@H]3CCC[C@H](C(=O)C=C(C)C)C3)n2)c1 (stereo in doubt) [Compound I-213, 1-(3-(2-(3-Methoxy-phenylamino)-5-trifluoromethyl-pyrimidin-4-ylamino)-cyclohexyl)-3-methyl-but-2-en-1-one] |
| > 8.00 |  |  | C=CC(=O)Nc1cccc(Nc2ncc(C)c(Nc3cccc(Br)c3)n2)c1 [Compound I-9, N-(3-(4-(3-bromophenylamino)-5-methylpyrimidin-2-ylamino)phenyl) acrylamide] |
| 7.00 to 8.00 |  | 6.00 to 7.00 | C=CC(=O)Nc1cccc(N(C)c2nc(Nc3ccccc3)ncc2C)c1 [Compound I-34, N-(3-(methyl(5-methyl-2-(phenylamino)pyrimidin-4-yl)amino)phenyl)acrylamide] |
| > 8.00 |  |  | C=CC(=O)Nc1cccc(Nc2nc(Nc3ccc(Cl)c(OCCCS(C)(=O)=O)c3)ncc2F)c1 [Compound I-55, N-(3-(2-(4-chloro-3-(3-(methylsulfonyl)propoxy)phenylamino)-5-fluoropyrimidin-4-ylamino)phenyl)acrylamide] |
| 6.00 to 7.00 | 5.00 to 6.00 |  | C/C=C/C(=O)OCc1ccc(Nc2nc(Nc3ccccc3)ncc2C)cc1 [Compound I-60, (E)-4-(5-methyl-2-(phenylamino)pyrimidin-4-ylamino) benzyl but-2-enoate] |
| > 8.00 |  | 6.00 to 7.00 | C=CC(=O)Nc1cccc(Nc2nc(Nc3ccc(Cl)c(OC)c3)ncc2F)c1 [Compound I-74, N-(3-(5-fluoro-2-(4-chloro-3-methoxyphenylamino)pyrimidin-4-ylamino)phenyl)acrylamide] |
| > 8.00 | > 8.00 |  | C=CC(=O)Nc1cccc(Oc2nc(Nc3cccc(OCC4CCCN(C)C4)c3)ncc2F)c1 (centres unmarked) [Compound I-81, N-(3-(5-fluoro-2-(3-((1-methylpiperidin-3-yl)methoxy)phenylamino)pyrimidin-4-yloxy)phenyl)acrylamide] |
| > 8.00 | > 8.00 |  | C=CC(=O)Nc1cccc(Nc2nc(Nc3cccc(OCC4CCN(C)CC4)c3)ncc2F)c1 [Compound I-82, N-(3-(5-fluoro-2-(3-((1-methylpiperidin-4-yl)methoxy)phenylamino)pyrimidin-4-ylamino)phenyl)-acrylamide] |
|  |  | 7.00 to 8.00 | C=CC(=O)Nc1cccc(Nc2nc(Nc3cccc(N4CCN(CCO)CC4)c3)ncc2F)c1 [Compound I-83, N-(3-(2-(3-(4-(2-hydroxyethyl)piperazin-1-yl)phenylamino)-5-fluoropyrimidin-4-ylamino)phenyl)acrylamide] |
| > 8.00 | > 8.00 |  | C=CC(=O)Nc1cccc(Oc2nc(Nc3cccc(N4CCN(CCO)CC4)c3)ncc2F)c1 [Compound I-84, N-(3-(5-fluoro-2-(3-(4-(2-hydroxyethyl)piperazin-1-yl)phenylamino)pyrimidin-4-yloxy)phenyl)acrylamide] |
| > 8.00 |  | 7.00 to 8.00 | C=CC(=O)Nc1cccc(Nc2nc(Nc3ccc(OCCN4CCCC4=O)cc3)ncc2F)c1 [Compound I-92, N-(3-(5-fluoro-2-(4-(2-(2-oxopyrrolidin-1-yl)ethoxy)phenylamino)pyrimidin-4-ylamino)phenyl)acrylamide] |
| > 8.00 |  | 7.00 to 8.00 | C=CC(=O)Nc1cccc(Nc2nc(Nc3ccc(OC(C)(C)CO)cc3)ncc2F)c1 [Compound I-93, N-(3-(5-fluoro-2-(4-(1-hydroxy-2-methylpropan-2-yloxy)phenylamino)pyrimidin-4-ylamino)phenyl)acrylamide] |
|  |  | 6.00 to 7.00 | C=C(Cn1cccn1)C(=O)Nc1cccc(Nc2ncc(F)c(Nc3cccc(C)c3)n2)c1 [Compound I-98, 2-((1H-pyrazol-1-yl)methyl)-N-(3-(5-fluoro-4-(m-tolylamino)pyrimidin-2-ylamino)phenyl)acrylamide] |
| > 8.00 | > 8.00 |  | Cc1cccc(Nc2nc(Nc3cccc(NC(=O)/C=C/CN4CC[C@H](O)C4)c3)ncc2F)c1 [Compound I-99, (S,E)-N-(3-(5-fluoro-4-(m-tolylamino)pyrimidin-2-ylamino)phenyl)-4-(3-hydroxypyrrolidin-1-yl)but-2-enamide] |
|  | 5.00 to 6.00 |  | Cc1cccc(Nc2nc(Nc3cccc(NC(=O)/C=C/Cn4cccn4)c3)ncc2F)c1 [Compound I-100, (E)-N-(3-(5-fluoro-4-(m-tolylamino)pyrimidin-2-ylamino)phenyl)-4-(1H-pyrazol-1-yl)but-2-enamide] |
| 7.00 to 8.00 |  | 7.00 to 8.00 | Cc1cccc(Nc2nc(Nc3cccc(NC(=O)/C=C/CN4C[C@@H]5C[C@H]4CN5)c3)ncc2F)c1 [Compound I-101, (E)-4-((1S,4S)-2,5-diazabicyclo[2.2.1]heptan-2-yl)-N-(3-(5-fluoro-4-(m-tolylamino)pyrimidin-2-ylamino)phenyl)but-2-enamide] |
|  |  | 6.00 to 7.00 | Cc1cccc(Nc2nc(Nc3cccc(NC(=O)/C=C/CN4CCOCC4)c3)ncc2F)c1 [Compound I-102, (E)-N-(3-(5-fluoro-4-(m-tolylamino)pyrimidin-2-ylamino)phenyl)-4-morpholinobut-2-enamide] |

| pIC50 (BTK) | pIC50 (EGFR-WT; [1]) | pIC50 (EGFR-WT) | Compound |
| --- | --- | --- | --- |
| 7.00 to 8.00 |  |  | C=CC(=O)N(C)Cc1cccc(Nc2nc(Nc3cccc(OC)c3)ncc2F)c1 [Compound I-115, N-(3-(5-fluoro-2-(3-methyoxyphenylamino)pyrimidin-4-ylamino)benzyl)-N-methylacrylamide] |
|  |  | 7.00 to 8.00 | Cc1cccc(Nc2nc(Nc3cccc(NC(=O)/C=C/CN4CCC4)c3)ncc2F)c1 [Compound I-123, (E)-4-(azetidin-1-yl)-N-(3-(5-fluoro-4-(m-tolylamino)pyrimidin-2-ylamino)phenyl)but-2-enamide] |
|  |  | 6.00 to 7.00 | C=CC(=O)Nc1cccc(N(C)c2nc(Nc3ccc4c(c3)N(C)CCO4)ncc2F)c1 [Compound I-127] |
|  |  | 7.00 to 8.00 | C=CC(=O)N1CCOc2ccc(Nc3nc(Nc4ccc(OCCO)nc4)ncc3C(C)=O)cc21 [Compound I-128, 1-(6-{5-Acetyl-2-[6-(2-hydroxy-ethoxy)-pyridin-3-ylamino]-pyrimidin-4-ylamino}-2,3-dihydro-benzo[1,4]oxazin-4-yl)-propenone] |
|  |  | 7.00 to 8.00 | C=CC(=O)Nc1cccc(Nc2nc(Nc3ccc(OCCOC)cc3)ncc2C2CC2)c1 [Compound I-139, N-(3-(5-cyclopropyl-2-(4-(2-methoxyethoxy)phenylamino)pyrimidin-4-ylamino)phenyl)acrylamide] |
|  |  | 7.00 to 8.00 | C=CC(=O)N1CCOc2ccc(Nc3nc(Nc4ccc(N5CCCC5=O)cc4)ncc3C(C)=O)cc21 [Compound I-152, 1-{4-[5-Acetyl-4-(4-acryloyl-3,4-dihydro-2H-benzo[1,4]oxazin-6-ylamino)-pyrimidin-2-ylamino]-phenyl}-pyrrolidin-2-one] |
|  | 5.00 to 6.00 |  | C=CC(=O)Nc1cccc(Nc2nc(Nc3ccc(OC)nc3)ncc2C(=O)NC(C)(C)C)c1 [Compound I-216, 4-(3-acrylamidophenylamino)-N-tert-butyl-2-(6-methoxypyridin-3-ylamino)pyrimidine-5-carboxamide] |
|  |  | 6.00 to 7.00 | C=CC(=O)Nc1cccc(Nc2nc(Nc3ccccc3)ncc2C(=O)Nc2ccccc2)c1 [Compound I-222, 4-(3-acrylamidophenylamino)-N-phenyl-2-(phenylamino)pyrimidine-5-carboxamide] |
|  | 5.00 to 6.00 |  | COc1cccc(Nc2ncc(C(F)(F)F)c(Nc3cccc(C(=O)C=C(C)C)c3)n2)c1 [Compound I-225, 1-(3-(5-trifluoromethyl-2-(3-methoxyphenylamino)pyrimidin-4-ylamino)phenyl)-3-methyl-but-2-en-1-one] |
|  | 5.00 to 6.00 |  | C=CC(=O)NCc1cccc(Nc2nc(Nc3cccc(OC)c3)ncc2C(F)(F)F)c1 [Compound I-226, N-(3-(5-trifluoromethyl-2-(3-methoxyphenylamino)pyrimidin-4-ylamino)phenyl)methylacrylamide] |
| 7.00 to 8.00 |  |  | C=CC(=O)N1CCC(Nc2nc(Nc3ccccc3)ncc2F)CC1 [Compound I-229, 1-(4-(5-fluoro-2-(phenylamino)pyrimidin-4-ylamino)piperidin-1-yl)prop-2-en-1-one] |
|  | < 5.00 |  | C=CC(=O)NCc1ccc(Nc2nc(Nc3cccc(OC)c3)ncc2C(F)(F)F)cc1 [Compound I-235, N-(4-(5-trifluoromethyl-2-(3-methoxyphenylamino)pyrimidin-4-ylamino)phenyl)methylacrylamide] |
| > 8.00 |  |  | C=C(C#N)C(O)c1cccc(Nc2nc(Nc3ccc(OCC(C)(C)O)nc3)ncc2F)c1 (centres unmarked) [Compound I-312, 2-((3-(5-fluoro-2-(6-(2-hydroxy-2-methylpropoxy)pyridin-3-ylamino)pyrimidin-4-ylamino)phenyl)(hydroxy)methyl)acrylonitrile] |
|  | < 5.00 |  | COCCOc1ccc(Nc2ncc(F)c(Nc3cccc(C(=O)C=C(C)C)c3)n2)cc1F [Compound I-323, 1-(3-(5-fluoro-2-(3-fluoro-4-(2-methoxyethoxy)phenylamino)pyrimidin-4-ylamino)phenyl)-3-methylbut-2-en-1-one] |
|  | 5.00 to 6.00 |  | COCCOc1ccc(Nc2ncc(F)c(Nc3ccc(C(=O)C=C(C)C)cc3)n2)cc1F [Compound I-325, 1-(4-(5-fluoro-2-(3-fluoro-4-(2-methoxyethoxy)phenylamino)pyrimidin-4-ylamino)phenyl)-3-methylbut-2-en-1-one] |
|  | < 5.00 |  | COCCOc1ccc(Nc2ncc(F)c(Nc3cccc(CC(=O)C=C(C)C)c3)n2)cc1F [Compound I-330, 1-(3-(5-fluoro-2-(3-fluoro-4-(2-methoxyethoxy)phenylamino)pyrimidin-4-ylamino)phenyl)-4-methylpent-3-en-2-one] |
|  | 5.00 to 6.00 |  | COCCOc1ccc(Nc2ncc(F)c(Nc3ccc(CC(=O)C=C(C)C)cc3)n2)cc1F [Compound I-331, 1-(4-(5-fluoro-2-(3-fluoro-4-(2-methoxyethoxy)phenylamino)pyrimidin-4-ylamino)phenyl)-4-methylpent-3-en-2-one] |

| Compound | pIC50 (BTK) | pIC50 (EGFR-WT; [1]) | pIC50 (EGFR-WT) |
| --- | --- | --- | --- |
| 4-(4-(4-(3-acrylamidophenylamino)-5-fluoropyrimidin-2-ylamino)phenoxy) pyridine [Compound I-346] | > 8.00 | 6.00 to 7.00 |  |

From patent US9987276B2 (Celgene CAR LLC, priority 2008, dated 2018)
